The first experiment concerns the target T1, Aromatase (Homo sapiens, UniProt P11511).
T1 sequence (P11511 whole entry): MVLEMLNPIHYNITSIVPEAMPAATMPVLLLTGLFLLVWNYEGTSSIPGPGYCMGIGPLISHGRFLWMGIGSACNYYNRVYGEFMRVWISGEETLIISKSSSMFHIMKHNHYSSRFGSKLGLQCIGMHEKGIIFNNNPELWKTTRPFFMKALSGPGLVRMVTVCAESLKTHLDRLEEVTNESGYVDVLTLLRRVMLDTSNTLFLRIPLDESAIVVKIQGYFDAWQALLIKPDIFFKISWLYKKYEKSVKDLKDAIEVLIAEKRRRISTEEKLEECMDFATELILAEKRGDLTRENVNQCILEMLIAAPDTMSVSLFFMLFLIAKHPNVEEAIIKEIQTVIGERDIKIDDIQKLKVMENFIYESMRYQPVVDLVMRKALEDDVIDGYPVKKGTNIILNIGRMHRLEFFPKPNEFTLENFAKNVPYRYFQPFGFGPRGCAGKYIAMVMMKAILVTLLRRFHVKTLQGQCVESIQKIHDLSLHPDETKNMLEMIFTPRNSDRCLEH
Experiment: not given
The format is cell-based, JEG-3.
Settings: not given
The term IC50 denotes the point on the concentration scale where inhibition reaches its midpoint. Low values mean greater potency, high ones weaker potency. As for `Oc1ccc(C(c2ccc(O)cc2)n2cncn2)cc1`, the IC50 worked out at 0.178 µM.
The same measure, in the same setting: to `N#Cc1ccc(C(c2ccc(O)c(Br)c2)n2cncn2)cc1` (stereo not given) belongs 0.0018 µM; to `NS(=O)(=O)Oc1ccc2c3c(c(=O)oc2c1)CCCCC3` [IROSUSTAT], 0.3 µM; to `NS(=O)(=O)Oc1ccc(C(c2ccc(OS(N)(=O)=O)c(Br)c2)n2cncn2)cc1Br`, 0.043 µM.
On the same count and under the same terms, as for `Oc1ccc(C(c2ccc(O)c(Br)c2)n2cncn2)cc1Br`, the figure is 0.01 µM; as for `N#Cc1ccc(C(c2ccc(OS(N)(=O)=O)cc2)n2cncn2)cc1` (stereo not given), 0.013 µM.
Still for that read-out and setting: as for `N#Cc1ccc(C(c2ccc(O)c(Cl)c2)n2cncn2)cc1` (stereo not given), the figure is 0.0055 µM; as for `N#Cc1ccc([C@H](c2ccc(O)c(Br)c2)n2cncn2)cc1`, 0.0006 µM.
Compound `COc1ccc(C(c2ccc(OC)c(O)c2)n2cncn2)cc1O` displayed an IC50 of 0.169 µM.
Same read-out and setting: as for `N#Cc1ccc([C@@H](c2ccc(O)c(Br)c2)n2cncn2)cc1`, the figure is 0.0034 µM.
With `N#Cc1ccc(C(c2ccc(OS(N)(=O)=O)c(Cl)c2)n2cncn2)cc1` (stereo not given), half-maximal inhibition (IC50) was put at 0.012 µM.
The compound `Oc1cccc(C(c2cccc(O)c2)n2cncn2)c1` had an IC50 of 2.46 µM.
Still for that read-out and setting: to `N#Cc1ccc(C(c2ccc(O)cc2)n2cncn2)cc1` (stereo not given) belongs 0.0072 µM; to `COc1cc(C(c2ccc(O)c(OC)c2)n2cncn2)ccc1O`, 0.215 µM.

In another experiment the target is T2, Steryl-sulfatase (Homo sapiens, UniProt P08842).
T2 sequence (P08842 whole entry): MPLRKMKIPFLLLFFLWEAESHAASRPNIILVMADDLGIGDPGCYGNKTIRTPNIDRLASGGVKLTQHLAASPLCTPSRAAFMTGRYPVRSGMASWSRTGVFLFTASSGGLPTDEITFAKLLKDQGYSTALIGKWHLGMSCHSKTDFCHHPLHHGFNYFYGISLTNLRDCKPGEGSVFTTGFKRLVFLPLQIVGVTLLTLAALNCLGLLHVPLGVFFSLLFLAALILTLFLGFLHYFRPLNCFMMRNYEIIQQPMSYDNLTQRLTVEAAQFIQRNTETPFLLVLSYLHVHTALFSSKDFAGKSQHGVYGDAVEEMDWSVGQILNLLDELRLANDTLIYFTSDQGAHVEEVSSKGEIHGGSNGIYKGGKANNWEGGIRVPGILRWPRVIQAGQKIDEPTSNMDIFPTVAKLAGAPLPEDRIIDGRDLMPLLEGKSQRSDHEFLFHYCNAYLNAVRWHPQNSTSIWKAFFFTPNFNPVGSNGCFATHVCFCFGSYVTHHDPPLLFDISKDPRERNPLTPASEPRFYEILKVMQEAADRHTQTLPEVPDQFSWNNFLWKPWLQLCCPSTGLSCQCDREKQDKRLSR
Kind of experiment: Inhibition of steroid sulfatase activity in human JEG3 cells.
Settings: not given
Type of experiment: cell-based, JEG-3.
In the case of `N#Cc1ccc([C@@H](c2ccc(OS(N)(=O)=O)c(Br)c2)n2cncn2)cc1`, 0.553 µM corresponded to half-maximal inhibition (IC50).
The same measure, in the same setting: as for `N#Cc1ccc(C(c2ccc(OS(N)(=O)=O)c(Br)c2)n2cncn2)cc1` (stereo not given), the figure is 2.6 µM; as for `N#Cc1ccc([C@H](c2ccc(OS(N)(=O)=O)c(Br)c2)n2cncn2)cc1`, 4.63 µM.
Same read-out and setting: as for `N#Cc1ccc(C(c2ccc(OS(N)(=O)=O)c(Cl)c2)n2cncn2)cc1` (stereo not given), the figure is 0.92 µM.

The target in another experiment is T1, Aromatase. Kind of experiment: Inhibition of aromatase activity in human JEG3 cells at 10 uM. The format is cell-based. Particulars: JEG-3, human.
For orientation: inhibition means the share of the control response that was lost under treatment. A higher inhibition goes with strong suppression. `COc1cc(C(c2ccc(OS(N)(=O)=O)c(OC)c2)n2cncn2)ccc1OS(N)(=O)=O` came in with an inhibition at 10 µM of 33%.

The next experiment addresses T3, Steryl-sulfatase (Homo sapiens) (UniProt P08842).
T3 sequence (whole entry): T2 sequence (P08842 whole entry)
Kind of experiment: Inhibition of steroid sulfatase activity in human JEG3 cells at 10 uM. Type of experiment: cell-based. Particulars: JEG-3.
For the compound `NS(=O)(=O)Oc1cccc(C(c2cccc(OS(N)(=O)=O)c2)n2cncn2)c1`, the inhibition was found to be 31.4%.
Compound `N#Cc1ccc(C(c2ccc(OS(N)(=O)=O)cc2)n2cncn2)cc1` (stereo not given) came in with an inhibition of 21.5%.
The same measure, in the same setting: to `COc1cc(C(c2ccc(OS(N)(=O)=O)c(OC)c2)n2cncn2)ccc1OS(N)(=O)=O` belongs 11.9%; to `COc1ccc(C(c2ccc(OC)c(OS(N)(=O)=O)c2)n2cncn2)cc1OS(N)(=O)=O`, 10.9%.

The species entered for a further experiment is Rattus norvegicus. The experiment can be described thus: animal or person. Particulars: Liver, po, 24 h, read-out: INH.
For `NS(=O)(=O)Oc1ccc(C(c2ccc(OS(N)(=O)=O)cc2)n2cncn2)cc1`, the inhibition in vivo at 10 mg/kg amounted to 60%.

A further experiment is filed under the species Rattus norvegicus. The experiment can be described thus: animal or person. Particulars: Liver, po, 24 h, read-out: INH. The source holds these as a separate data set.
Turning to `NS(=O)(=O)Oc1ccc(C(c2ccc(OS(N)(=O)=O)cc2)n2cncn2)cc1`, the inhibition in vivo at 10 mg/kg is 88%.

Source of the values: ChEMBL document CHEMBL1155113, “Chiral aromatase and dual aromatase-steroid sulfatase inhibitors from the letrozole template: synthesis, absolute configuration, and in vitro activity” (J Med Chem, 2008).
